# Earlier results as cited in patent publication US11266615B2, “Pyrimethamine-based pharmaceutical compositions and methods for fabricating thereof” (Harrow IP, LLC, priority 2018, dated 2022).
# Conditions: background statement
smiles,measurement,value
"CCc1nc(N)nc(N)c1-c1ccc(Cl)cc1 [pyrimethamine, 5-(4-chlorophenyl)-6-ethyl-pyrimidine-2,4-diamine]",solubility in water,poor
